Results as given in ChEMBL document CHEMBL1201862, “PubChem BioAssay data set” (2004).
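Exposure lasted 48 hours, with cells grown in 96-well plates and compounds tested at five concentrations. GI50 is the concentration that inhibits growth by half.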 The source made the active and inactive calls. Cut-off read from the data, not from the text of the source: active = GI50 up to about 1.1 µM and inactive = higher.

Tests used:
Assay in all cases: NCI-60 cell line screen, 48 h
[1] = tested on: A549
[2] = tested on: ACHN
[3] = tested on: CCRF-CEM
[4] = tested on: COLO 205
[5] = tested on: HCT-116
[6] = tested on: HCT-15
[7] = tested on: HL-60
[8] = tested on: Hs-578T
[9] = tested on: NCI-H226
[10] = tested on: NCI-H460
[11] = tested on: RPMI-8226
[12] = tested on: SF-295
[13] = tested on: SK-MEL-28
[14] = tested on: SN12C
[15] = tested on: T47D
[16] = tested on: U-251
[17] = tested on: UACC-257
[18] = tested on: UO-31
[19] = tested on: HCC 2998
[20] = tested on: HOP-92

CSc1nn(C)cc2ncnc1-2
GI50 [1]: > 100 µM (inactive)
GI50 [2]: > 100 µM (inactive)
GI50 [3]: > 100 µM (inactive)
GI50 [4]: > 100 µM (inactive)
GI50 [5]: > 100 µM (inactive)
GI50 [6]: > 100 µM
GI50 [7]: > 100 µM (inactive)
GI50 [8]: > 100 µM (inactive)
GI50 [9]: > 100 µM (inactive)
GI50 [10]: > 100 µM (inactive)
GI50 [11]: > 100 µM (inactive)
GI50 [12]: > 100 µM (inactive)
GI50 [13]: > 100 µM (inactive)
GI50 [14]: > 100 µM (inactive)
GI50 [15]: > 100 µM (inactive)
GI50 [16]: > 100 µM (inactive)
GI50 [17]: > 100 µM (inactive)
GI50 [18]: > 100 µM (inactive)

O=C1Nc2c(Cl)cccc2/C1=N/Nc1ccccc1[N+](=O)[O-]
GI50 [1]: 21.8 µM (inactive)
GI50 [2]: 11.9 µM (inactive)
GI50 [3]: 46 µM (inactive)
GI50 [4]: 81.3 µM (inactive)
GI50 [19]: 32.7 µM (inactive)
GI50 [5]: 29.7 µM (inactive)
GI50 [6]: 29.9 µM
GI50 [7]: 70.1 µM (inactive)
GI50 [8]: 7.87 µM (inactive)
GI50 [9]: 36.1 µM (inactive)
GI50 [10]: 17.3 µM (inactive)
GI50 [11]: 25 µM (inactive)
GI50 [12]: 9.02 µM (inactive)
GI50 [13]: 35.1 µM (inactive)
GI50 [14]: 28.9 µM (inactive)
GI50 [15]: 22.2 µM (inactive)
GI50 [16]: 14.2 µM (inactive)
GI50 [17]: 22.4 µM (inactive)
GI50 [18]: 22.1 µM (inactive)

O=c1cc(NCC2CCCCC2)[nH]c(=O)[nH]1
GI50 [1]: > 100 µM (inactive)
GI50 [2]: > 100 µM (inactive)
GI50 [3]: > 100 µM (inactive)
GI50 [4]: > 100 µM (inactive)
GI50 [19]: > 100 µM (inactive)
GI50 [5]: > 100 µM (inactive)
GI50 [6]: > 100 µM
GI50 [7]: > 100 µM (inactive)
GI50 [20]: 95.1 µM (inactive)
GI50 [8]: > 100 µM (inactive)
GI50 [9]: > 100 µM (inactive)
GI50 [10]: > 100 µM (inactive)
GI50 [11]: > 100 µM (inactive)
GI50 [12]: > 100 µM (inactive)
GI50 [13]: > 100 µM (inactive)
GI50 [14]: > 100 µM (inactive)
GI50 [16]: > 100 µM (inactive)
GI50 [17]: > 100 µM (inactive)
GI50 [18]: > 100 µM (inactive)

O=C1C(c2ccccc2)=[N+]([O-])c2cc([N+](=O)[O-])ccc21
GI50 [1]: 32 µM (inactive)
GI50 [2]: 24.9 µM (inactive)
GI50 [3]: 8.93 µM (inactive)
GI50 [4]: 21.5 µM (inactive)
GI50 [19]: 27.5 µM (inactive)
GI50 [5]: 23.8 µM (inactive)
GI50 [6]: 21.4 µM
GI50 [7]: 7.52 µM (inactive)
GI50 [20]: 30.5 µM (inactive)
GI50 [9]: 73.3 µM (inactive)
GI50 [10]: 24.7 µM (inactive)
GI50 [11]: 22.8 µM (inactive)
GI50 [12]: 48.2 µM (inactive)
GI50 [13]: 22.6 µM (inactive)
GI50 [14]: 25.6 µM (inactive)
GI50 [16]: 27.7 µM (inactive)
GI50 [17]: 18.5 µM (inactive)
GI50 [18]: 52.1 µM (inactive)

COc1ccc(/C=N/NC(=O)c2ccccc2Nc2ccccc2C(=O)N/N=C/c2ccc(OC)cc2)cc1
GI50 [1]: > 100 µM (inactive)
GI50 [2]: > 100 µM (inactive)
GI50 [3]: > 100 µM (inactive)
GI50 [4]: > 100 µM (inactive)
GI50 [19]: > 100 µM (inactive)
GI50 [5]: > 100 µM (inactive)
GI50 [6]: > 100 µM
GI50 [20]: > 100 µM (inactive)
GI50 [9]: > 100 µM (inactive)
GI50 [10]: > 100 µM (inactive)
GI50 [11]: > 100 µM (inactive)
GI50 [12]: > 100 µM (inactive)
GI50 [13]: > 100 µM (inactive)
GI50 [14]: > 100 µM (inactive)
GI50 [15]: > 100 µM (inactive)
GI50 [16]: > 100 µM (inactive)
GI50 [17]: > 100 µM (inactive)
GI50 [18]: > 100 µM (inactive)

O=C1c2ccccc2-c2ccc(O)cc21
GI50 [1]: 25.9 µM (inactive)
GI50 [2]: 16.6 µM (inactive)
GI50 [4]: 19.7 µM (inactive)
GI50 [5]: 45.6 µM (inactive)
GI50 [6]: 21.6 µM
GI50 [7]: 23.2 µM (inactive)
GI50 [8]: 33.6 µM (inactive)
GI50 [9]: 26.3 µM (inactive)
GI50 [10]: 20.1 µM (inactive)
GI50 [11]: 39 µM (inactive)
GI50 [12]: 22.9 µM (inactive)
GI50 [13]: 19.7 µM (inactive)
GI50 [14]: 15.7 µM (inactive)
GI50 [15]: 18.4 µM (inactive)
GI50 [16]: 26.7 µM (inactive)
GI50 [17]: 19.6 µM (inactive)
GI50 [18]: 17.2 µM (inactive)

COC(=O)C(C#N)C1NC(=O)c2ccccc21 (stereo unspecified)
GI50 [1]: > 100 µM (inactive)
GI50 [2]: > 100 µM (inactive)
GI50 [3]: > 100 µM (inactive)
GI50 [4]: > 100 µM (inactive)
GI50 [19]: > 100 µM (inactive)
GI50 [5]: > 100 µM (inactive)
GI50 [6]: > 100 µM
GI50 [7]: > 100 µM (inactive)
GI50 [20]: > 100 µM (inactive)
GI50 [9]: > 100 µM (inactive)
GI50 [10]: > 100 µM (inactive)
GI50 [11]: > 100 µM (inactive)
GI50 [12]: > 100 µM (inactive)
GI50 [13]: > 100 µM (inactive)
GI50 [14]: > 100 µM (inactive)
GI50 [16]: > 100 µM (inactive)
GI50 [17]: > 100 µM (inactive)
GI50 [18]: > 100 µM (inactive)

COC(=O)CP1(=O)OC2C(C3CCC2(C)C3(C)C)N1c1cc(C(F)(F)F)cc(C(F)(F)F)c1 (stereo unspecified)
GI50 [1]: 30 µM (inactive)
GI50 [2]: > 100 µM (inactive)
GI50 [4]: 24 µM (inactive)
GI50 [19]: 22.9 µM (inactive)
GI50 [5]: 12.6 µM (inactive)
GI50 [6]: 24.4 µM
GI50 [9]: 31.6 µM (inactive)
GI50 [10]: 22.2 µM (inactive)
GI50 [11]: 15.9 µM (inactive)
GI50 [12]: 19.7 µM (inactive)
GI50 [13]: 42.9 µM (inactive)
GI50 [15]: 19.1 µM (inactive)
GI50 [16]: 26.1 µM (inactive)
GI50 [17]: 32.8 µM (inactive)
GI50 [18]: 32.9 µM (inactive)

Nc1ncnc2c1nnn2C1C=CC(CP(=O)(O)O)C1 (stereo unspecified)
GI50 [1]: > 100 µM (inactive)
GI50 [2]: > 100 µM (inactive)
GI50 [4]: > 100 µM (inactive)
GI50 [19]: > 100 µM (inactive)
GI50 [5]: > 100 µM (inactive)
GI50 [6]: > 100 µM
GI50 [7]: > 100 µM (inactive)
GI50 [8]: > 100 µM (inactive)
GI50 [9]: > 100 µM (inactive)
GI50 [10]: > 100 µM (inactive)
GI50 [11]: > 100 µM (inactive)
GI50 [12]: > 100 µM (inactive)
GI50 [13]: > 100 µM (inactive)
GI50 [14]: > 100 µM (inactive)
GI50 [15]: > 100 µM (inactive)
GI50 [16]: > 100 µM (inactive)
GI50 [17]: > 100 µM (inactive)
GI50 [18]: > 100 µM (inactive)

COc1cc([N+](=O)[O-])c(S(=O)(=O)O)cc1N
GI50 [1]: > 100 µM (inactive)
GI50 [2]: > 100 µM (inactive)
GI50 [3]: > 100 µM (inactive)
GI50 [4]: > 100 µM (inactive)
GI50 [5]: > 100 µM (inactive)
GI50 [6]: > 100 µM
GI50 [7]: > 100 µM (inactive)
GI50 [8]: > 100 µM (inactive)
GI50 [9]: > 100 µM (inactive)
GI50 [10]: > 100 µM (inactive)
GI50 [11]: > 100 µM (inactive)
GI50 [13]: > 100 µM (inactive)
GI50 [14]: > 100 µM (inactive)
GI50 [15]: > 100 µM (inactive)
GI50 [16]: > 100 µM (inactive)
GI50 [17]: > 100 µM (inactive)
GI50 [18]: > 100 µM (inactive)

NCCCn1c2ccccc2c2c3c(c4c(c21)CCC(O)CC4)C(=O)NC3=O (stereo unspecified)
GI50 [1]: 4.86 µM (inactive)
GI50 [2]: 1.79 µM (inactive)
GI50 [3]: 0.962 µM (active)
GI50 [19]: 0.845 µM (active)
GI50 [5]: 1.88 µM (inactive)
GI50 [6]: 11 µM
GI50 [7]: 9.12 µM (inactive)
GI50 [20]: 2.71 µM (inactive)
GI50 [8]: 3.13 µM (inactive)
GI50 [9]: 2.74 µM (inactive)
GI50 [10]: 2.06 µM (inactive)
GI50 [11]: 1.98 µM (inactive)
GI50 [12]: 3.22 µM (inactive)
GI50 [13]: 0.92 µM (active)
GI50 [14]: 2.42 µM (inactive)
GI50 [16]: 1.75 µM (inactive)
GI50 [17]: 14.8 µM (inactive)
GI50 [18]: 6.27 µM (inactive)

CCCC(=O)Oc1cc(OC(=O)CCC)c2c(C)cc(=O)oc2c1
GI50 [1]: 92.9 µM (inactive)
GI50 [2]: > 100 µM (inactive)
GI50 [3]: 31.9 µM (inactive)
GI50 [4]: 40 µM (inactive)
GI50 [5]: 50.1 µM (inactive)
GI50 [6]: > 100 µM
GI50 [20]: 19.6 µM (inactive)
GI50 [8]: 48.4 µM (inactive)
GI50 [9]: 87.7 µM (inactive)
GI50 [11]: 32.2 µM (inactive)
GI50 [12]: 78.7 µM (inactive)
GI50 [13]: > 100 µM (inactive)
GI50 [14]: > 100 µM (inactive)
GI50 [16]: 78.3 µM (inactive)
GI50 [17]: 83.6 µM (inactive)
GI50 [18]: 39.6 µM (inactive)
